This is an account of results in US10689354B2, “Aminoazole derivative” (Teijin Pharma Limited, priority 2015, dated 2020).

Each structure is given as a SMILES string.

The target in experiment [1] is T1, androgen receptor (AR-LBD) (Rattus norvegicus, UniProt P15207).
T1 construct: 5 μL of 2×AR-LBD/Fluoromone AL Red Complex contained in the kit; purchased Invitrogen
T1 sequence (P15207 651-882 limits assumed): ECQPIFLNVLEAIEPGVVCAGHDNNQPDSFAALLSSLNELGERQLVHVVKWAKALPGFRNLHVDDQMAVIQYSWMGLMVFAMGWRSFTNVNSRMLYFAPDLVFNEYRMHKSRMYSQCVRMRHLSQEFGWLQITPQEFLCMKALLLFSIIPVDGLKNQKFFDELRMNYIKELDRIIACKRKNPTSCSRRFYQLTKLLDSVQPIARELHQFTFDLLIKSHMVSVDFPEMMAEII
As to the kind of experiment: Evaluation of androgen receptor affinity (PolarScreen Androgen Receptor Competitor Assay Kit, Red; fluorescence polarization). The settings on record: 22° C. for 5 hours, relative to binding rate of 1 μM DHT, read-out: AR affinity (pEC50) (converted). A digest of the protocol: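 Test compound and the 2× AR-LBD/Fluoromone AL Red complex were combined in duplicate wells. After reacting 5 h at 22° C, polarization was measured. pEC50 was derived by 4-parameter fitting, normalizing to binding obtained with 1 μM dihydrotestosterone.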

The target of a further experiment is T2, human androgen receptor (Homo sapiens, UniProt P10275).
T2 construct: expressed in transfected cells; host or cells: HEK293
T2 sequence (P10275 1-920): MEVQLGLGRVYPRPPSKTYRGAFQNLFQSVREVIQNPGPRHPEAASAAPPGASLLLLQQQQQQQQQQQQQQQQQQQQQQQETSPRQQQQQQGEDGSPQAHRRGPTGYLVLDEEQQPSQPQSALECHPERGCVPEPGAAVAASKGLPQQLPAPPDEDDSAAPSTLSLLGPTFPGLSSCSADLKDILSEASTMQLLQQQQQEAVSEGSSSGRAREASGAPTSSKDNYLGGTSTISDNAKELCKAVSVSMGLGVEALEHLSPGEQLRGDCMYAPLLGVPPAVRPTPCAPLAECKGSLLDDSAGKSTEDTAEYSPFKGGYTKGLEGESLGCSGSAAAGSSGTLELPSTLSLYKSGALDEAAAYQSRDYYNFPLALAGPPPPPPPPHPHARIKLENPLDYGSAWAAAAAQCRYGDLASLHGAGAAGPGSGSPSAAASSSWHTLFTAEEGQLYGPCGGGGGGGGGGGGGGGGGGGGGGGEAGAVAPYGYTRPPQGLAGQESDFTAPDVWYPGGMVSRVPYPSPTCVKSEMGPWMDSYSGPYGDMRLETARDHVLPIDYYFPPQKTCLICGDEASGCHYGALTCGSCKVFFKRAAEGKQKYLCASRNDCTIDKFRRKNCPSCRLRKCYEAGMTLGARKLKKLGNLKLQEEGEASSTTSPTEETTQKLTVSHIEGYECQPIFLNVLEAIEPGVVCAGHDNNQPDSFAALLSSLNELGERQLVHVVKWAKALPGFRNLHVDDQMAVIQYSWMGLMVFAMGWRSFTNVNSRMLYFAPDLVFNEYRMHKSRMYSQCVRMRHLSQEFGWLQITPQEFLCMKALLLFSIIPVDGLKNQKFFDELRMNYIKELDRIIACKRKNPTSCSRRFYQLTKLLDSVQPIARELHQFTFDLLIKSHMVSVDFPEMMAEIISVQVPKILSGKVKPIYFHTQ
As to the kind of experiment: Reporter assay of an androgen receptor responsive sequence (luciferase, transiently transfected HEK293 cells). Format: cell-based. The settings on record: 24 hours incubation, relative to activity of 100 nM DHT, read-out: AR transcriptive activity (pEC50) (converted). Put shortly:
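Agonism scored as pEC50, fitted by 4-parameter curve against the response to 100 nM DHT, from dual-luciferase readout after 24 h compound treatment. Cells were HEK293 co-transfected (3 h) with human AR expression vector, androgen-responsive firefly reporter and Renilla control, in charcoal-stripped serum.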

In the case of `Cc1sc(N(Cc2ccc(OC(F)F)nc2)c2ccc(C#N)cc2)nc1C(=O)NS(C)(=O)=O` [Compound 524, 2-[4-cyano-N-[[6-(difluoromethoxy)-3-pyridyl]methyl]anilino]-5-methyl-N-methylsulfonyl-thiazole-4-carboxamide], the EC50 in experiment [1] is 39.8 nM; at human androgen receptor, 501 nM.
For `COCCCS(=O)(=O)NC(=O)c1nc(N(Cc2ccc(OC(F)F)nc2)c2ccc(C#N)cc2)sc1C` [Compound 525, 2-[4-cyano-N-[[6-(difluoromethoxy)-3-pyridyl]methyl]anilino]-N-(3-methoxypropylsulfonyl)-5-methyl-thiazole-4-carboxamide], the EC50 is 50.1 nM in experiment [1] and 631 nM at human androgen receptor.
Taken in the same sequence, the figures for `COCCCS(=O)(=O)NC(=O)c1nc(N(Cc2ccc(OC(F)F)c(F)c2)c2ccc(C#N)cc2)sc1C` [Compound 526, 2-[4-cyano-N-[[4-(difluoromethoxy)-3-fluoro-phenyl]methyl]anilino]-N-(3-methoxypropylsulfonyl)-5-methyl-thiazole-4-carboxamide] were 39.8 nM and 100 nM.
With `Cc1sc(N(Cc2ncc(F)cc2F)c2ccc(C#N)cc2)nc1C(=O)NS(C)(=O)=O` [Compound 527, 2-[4-cyano-N-[(3,5-difluoro-2-pyridyl)methyl]anilino]-5-methyl-N-methylsulfonyl-thiazole-4-carboxamide], the EC50 in experiment [1] was 501 nM; at human androgen receptor, 1000 nM.
The corresponding values for `Cc1sc(N(Cc2ccc(Br)c(Cl)c2)c2ccc(C#N)cc2)nc1C(=O)NS(C)(=O)=O` [Compound 528, 2-[N-[(4-bromo-3-chloro-phenyl)methyl]-4-cyano-anilino]-5-methyl-N-methylsulfonyl-thiazole-4-carboxamide] are over 2000 nM and 7940 nM.
For the molecule `Cc1sc(N(Cc2cc3ccccc3cn2)c2ccc(C#N)cc2)nc1C(=O)NS(C)(=O)=O` [Compound 529, 2-[4-cyano-N-(3-isoquinolylmethyl)anilino]-5-methyl-N-methylsulfonyl-thiazole-4-carboxamide], the results for the EC50 (in experiment [1]; on human androgen receptor) were 398 nM and 316 nM, respectively.
The corresponding values for `Cc1sc(N(Cc2cnc(C(F)(F)F)c(Cl)c2)c2ccc(C#N)cc2)nc1C(=O)NS(C)(=O)=O` [Compound 530, 2-[N-[[5-chloro-6-(trifluoromethyl)-3-pyridyl]methyl]-4-cyano-anilino]-5-methyl-N-methylsulfonyl-thiazole-4-carboxamide] are 50.1 nM and 501 nM.
Regarding `COCCCS(=O)(=O)NC(=O)c1nc(N(Cc2cnc(C(F)(F)F)c(Cl)c2)c2ccc(C#N)cc2)sc1C` [Compound 531, 2-[N-[[5-chloro-6-(trifluoromethyl)-3-pyridyl]methyl]-4-cyano-anilino]-N-(3-methoxypropylsulfonyl)-5-methyl-thiazole-4-carboxamide], the EC50 is 100 nM in experiment [1] and 1000 nM on human androgen receptor.
As for `COCCCS(=O)(=O)NC(=O)c1nc(N(Cc2cnc(C(F)(F)F)c(OC)c2)c2ccc(C#N)cc2)sc1C` [Compound 532, 2-[4-cyano-N-[[5-methoxy-6-(trifluoromethyl)-3-pyridyl]methyl]anilino]-N-(3-methoxypropylsulfonyl)-5-methyl-thiazole-4-carboxamide], the EC50 in experiment [1] was 200 nM; at human androgen receptor, 1580 nM.
`COCCCS(=O)(=O)NC(=O)c1nc(N(Cc2cnc(C(F)(F)F)c(F)c2)c2ccc(C#N)cc2)sc1C` [Compound 533, 2-[4-cyano-N-[[5-fluoro-6-(trifluoromethyl)-3-pyridyl]methyl]anilino]-N-(3-methoxypropylsulfonyl)-5-methyl-thiazole-4-carboxamide]: the EC50 in experiment [1] was 158 nM; at human androgen receptor, 794 nM.
Take `COCCCS(=O)(=O)NC(=O)c1nc(N(Cc2ccc(C(F)(F)F)c(C#N)c2)c2ccc(C#N)cc2)sc1C` [Compound 534, 2-[4-cyano-N-[[3-cyano-4-(trifluoromethyl)phenyl]methyl]anilino]-N-(3-methoxypropylsulfonyl)-5-methyl-thiazole-4-carboxamide]: the EC50 in experiment [1] is 100 nM; at human androgen receptor, 158 nM.
Regarding `COCCCS(=O)(=O)NC(=O)c1nc(N(Cc2ncc(Br)cc2F)c2ccc(C#N)cc2)sc1C` [Compound 535, 2-[N-[(5-bromo-3-fluoro-2-pyridyl)methyl]-4-cyano-anilino]-N-(3-methoxypropylsulfonyl)-5-methyl-thiazole-4-carboxamide], the EC50 in experiment [1] is 126 nM; at human androgen receptor, 316 nM.
On to `Cc1sc(N(Cc2ccc(OC(F)F)c(Cl)c2)c2ccc(C#N)cc2)nc1C(=O)NS(C)(=O)=O` [Compound 536, 2-[N-[[3-chloro-4-(difluoromethoxy)phenyl]methyl]-4-cyano-anilino]-5-methyl-N-methylsulfonyl-thiazole-4-carboxamide], for which the EC50 in experiment [1] is 20 nM; at human androgen receptor, 39.8 nM.
For the molecule `Cc1sc(N(Cc2cnc(C(F)(F)F)cn2)c2ccc(C#N)cc2)nc1C(=O)NS(C)(=O)=O` [Compound 537, 2-[4-cyano-N-[[5-(trifluoromethyl)pyrazin-2-yl]methyl]anilino]-5-methyl-N-methylsulfonyl-thiazole-4-carboxamide], the figures for the EC50 (in experiment [1]; on human androgen receptor) were 316 nM and 631 nM, respectively.
As to `Cc1sc(N(Cc2ccnc(C(F)(F)F)c2)c2ccc(C#N)cc2)nc1C(=O)NS(C)(=O)=O` [Compound 538, 2-[4-cyano-N-[[2-(trifluoromethyl)-4-pyridyl]methyl]anilino]-5-methyl-N-methylsulfonyl-thiazole-4-carboxamide], the EC50 is 398 nM in experiment [1] and 3980 nM on human androgen receptor.
The corresponding values for `COCCCCS(=O)(=O)NC(=O)c1nc(N(Cc2ccc(OC(F)(F)F)cc2)c2ccc(C#N)cc2)sc1C` [Compound 539, 2-[4-cyano-N-[[4-(trifluoromethoxy)phenyl]methyl]anilino]-N-(4-methoxybutylsulfonyl)-5-methyl-thiazole-4-carboxamide] are 15.8 nM and 158 nM.
The corresponding values for `COCCOCCCS(=O)(=O)NC(=O)c1nc(N(Cc2ccc(OC(F)(F)F)cc2)c2ccc(C#N)cc2)sc1C` [Compound 540, 2-[4-cyano-N-[[4-(trifluoromethoxy)phenyl]methyl]anilino]-N-[3-(2-methoxyethoxy)propylsulfonyl]-5-methyl-thiazole-4-carboxamide] are 316 nM and over 10000 nM.
Take `Cc1oc(N(CCc2ccc(Cl)cc2)Cc2cccc(OC(F)(F)F)c2)nc1C(=O)NS(C)(=O)=O` [Compound 542, 2-[2-(4-chlorophenyl)ethyl-[[3-(trifluoromethoxy)phenyl]methyl]amino]-5-methyl-N-methylsulfonyl-oxazole-4-carboxamide]: the EC50 in experiment [1] is 79.4 nM; at human androgen receptor, 501 nM.
The corresponding values for `Cc1oc(N(CCc2ccc(Cl)cc2)Cc2ccccc2OC(F)F)nc1C(=O)NS(C)(=O)=O` [Compound 543, 2-[2-(4-chlorophenyl)ethyl-[[2-(difluoromethoxy)phenyl]methyl]amino]-5-methyl-N-methylsulfonyl-oxazole-4-carboxamide] are 50.1 nM and 1260 nM.
Consider `Cc1oc(N(CCc2ccc(Cl)cc2)Cc2ccc(OC(F)(F)F)cc2)nc1C(=O)NS(C)(=O)=O` [Compound 544, 2-[2-(4-chlorophenyl)ethyl-[[4-(trifluoromethoxy)phenyl]methyl]amino]-5-methyl-N-methylsulfonyl-oxazole-4-carboxamide], for which the figures for the EC50 (in experiment [1]; at human androgen receptor) were 39.8 nM and 316 nM, respectively.
`Cc1oc(N(CCc2ccc(Cl)cc2)Cc2ccc3ncsc3c2)nc1C(=O)NS(C)(=O)=O` [Compound 545, 2-[1,3-benzothiazol-6-ylmethyl-[2-(4-chlorophenyl)ethyl]amino]-5-methyl-N-methylsulfonyl-oxazole-4-carboxamide]: the EC50 in experiment [1] is 39.8 nM; on human androgen receptor, 158 nM.
